The values below come from patent US11286263B2, “Macrocyclic fluorine substituted indole derivatives” (The Broad Institute, Inc., priority 2017, dated 2022).

Values joined by “and” are separate entries in the source; they are usually repeats but may differ in a detail not shown here. Equal entries are not always repeated. Structures can show the parent of a compound that is named as a salt. Where two headings read alike, the source gives them in different places.

Data set [1] deals with MCL-1 (Homo sapiens (Human), UniProt Q07820, K194A/K197A/R201A). The data set is described as follows: Protein-protein interaction assay MCL-1/Noxa BH3 peptide (MCL-1 assay), TR-FRET. Type of data set: binding. The settings on record: MCL-1/Noxa BH3 peptide TR-FRET; median. An outline of the steps:
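TR-FRET competition between MBP-MCL-1 (173-321, 1 nM) and biotin-Noxa BH3 peptide (1 nM) with anti-MBP-Eu/streptavidin-XL665; 11 compound levels 0.1 nM–20 μM, 10 min preincubation. Incubated 1 h at 22 °C then overnight at 4 °C, pH 7 Tris buffer. 665/620 ratio normalized to DMSO and no-MCL-1; 4-parameter IC50.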
Background: Time-resolved FRET reads energy transfer from a long-lived donor to a nearby acceptor.

In data set [2] the test system is A2780. The data set is described as follows: Antiproliferation assay A2780 (Assay 7). The settings on record: A2780 cells, CellTiter-Glo, single determinations, read-out: IC50 Antiproli A2780. The data set is classed as cell-based. In short, it runs like this: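 CellTiter-Glo luminescence readout; 72 h compound exposure, 37 °C, humidified; rim wells excluded; time-zero reference plate plated in parallel and read identically.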
For orientation: Cellular ATP, detected with luciferase, serves as a proxy for viable cell number.

In data set [3] the test system is SUDHL5. The data set is described as follows: Induction of cytotoxicity, SUDHL5 (Assay 6). The settings on record: read-out: IC50 Cytotox SUDHL5 [M] (median), SUDHL5 cells, 5 h, CellTiter-Glo.
Data set [4] has as its system SUDHL10. Kind of data set: Induction of cytotoxicity, SUDHL10 (Assay 6). The settings on record: read-out: IC50 Cytotox SUDHL10 [M] (median), SUDHL10 cells, 5 h, CellTiter-Glo.
Description: In principle, compounds that induce apoptosis will concomitantly induce cell cytotoxicity. Therefore, cytotoxicity assays were run in parallel in SUDHL5 and SUDHL10 cells.
The different cell lines were plated in culture medium (RPMI 1640 [GIBCO #22400-089] supplemented with 10% Fetal Bovine Serum) at a density of 3,300 cells in 30 μl/well in a sterile, solid black, flat bottom, polystyrene, TC-treated 384-well microplate (Corning #3571) using Multidrop Combi Reagent Dispenser. As a control, medium without cells was also added to the plate. Cells were incubated in a humidified incubator at 37° C. overnight. On the next day, the cells were treated with compounds (stock solution, 10 mM in DMSO) using the HP D300 Digital Dispenser in a concentration range of 3.3×10e-5 M (33 μM) to 5×10e-9 M (5 nM) in a single-dot curve with at least 16 dilutions and a DMSO concentration of 0.33%. Rim wells were excluded. The cells were incubated for 5 h hours in a humidified incubator at 37° C. After this incubation, 30 μl of CellTiter-Glo® Luminescent Cell Viability reagent (Promega, G7573) was added to each well using the Multidrop Combi Reagent Dispenser, followed by 15 min incubation on a shaker at room temperature. Finally, luminescence was read at 0.1 ms, with a gain of 3000 using the PHERAstar FS microplate reader (BMG Labtech).
The Bella DRC Master Sheet was used to calculate IC50s, with fixed CI=0 and C0=1.
The subject of data set [5] is SUDHL5. The data set is described as follows: Induction of caspase-3/7 activity, SUDHL5 (Assay 4). The data set is classed as cell-based. The settings on record: SUDHL5 cells. In short, it runs like this: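 DLBCL lines treated with compounds for 3 h at 37° C.; caspase-3/7 activity read by Caspase-Glo 3/7 luminescence. Medium-only background subtracted; EC50 fitted with bottom fixed at 1 and top set to reference compound's maximal induction.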

Setting [6] is: Homo sapiens, SU-DHL-5, 3 h, Caspase-Glo 3/7, median.

Sequence of MCL-1 (Q07820 whole entry K194A/K197A/R201A, looked up): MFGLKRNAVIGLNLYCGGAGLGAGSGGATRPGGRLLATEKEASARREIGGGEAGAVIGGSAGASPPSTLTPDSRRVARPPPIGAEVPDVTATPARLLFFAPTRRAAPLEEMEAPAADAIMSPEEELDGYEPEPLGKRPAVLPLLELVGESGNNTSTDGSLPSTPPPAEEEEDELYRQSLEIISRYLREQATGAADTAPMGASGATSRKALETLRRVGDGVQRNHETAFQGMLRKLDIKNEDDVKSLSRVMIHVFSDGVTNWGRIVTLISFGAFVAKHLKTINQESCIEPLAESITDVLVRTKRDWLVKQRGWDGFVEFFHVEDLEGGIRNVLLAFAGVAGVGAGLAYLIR

As for `Cc1c2c(nn1C)COC/C=C\Cn1c(C(=O)O)c(CCCOc3cccc4ccccc34)c3ccc(F)c-2c31` (racemic) [Example 1, (rac)-(11Z)-4-fluoro-2,3-dimethyl-7-[3-(naphthalen-1-yloxy)propyl]-2,10,13,15-tetrahydro-pyrazolo[4′,3′:9,10][1,6]oxazacycloundecino[8,7,6-hi]indole-8-carboxylic acid], the IC50 was 0.0018 µM in data set [1]; 21.1 µM in data set [2] (72 h, listed as 01); > 33 µM in data set [2] (Homo sapiens, A2780, 72 h); 1.2e-06 M in data set [3] (Homo sapiens, SU-DHL-5, 5 h); 3.8e-06 M in data set [4] (Homo sapiens, SU-DHL10, 5 h). This molecule yielded an EC50 in data set [5] (setting [6]) of 1.4 µM.
For the molecule `CCc1c2c(nn1C)COCCCCn1c(C(=O)O)c(CCCOc3cccc4ccccc34)c3ccc(F)c-2c31` (single isomer, unassigned; enantiomer 1) [Example 7, 3-ethyl-4-fluoro-2-methyl-7-{3-[(naphthalen-1-yl)oxy]propyl}-2,10,11,12,13,15-hexahydro-pyrazolo[4′,3′:9,10][1,6]oxazacycloundecino[8,7,6-hi]indole-8-carboxylic acid-N-ethylethanamine salt (enantiomer 1)], the IC50 in data set [1] was 0.00097 µM; in data set [2] (72 h, listed as 07), 8.84 µM and 13.2 µM; in data set [3], 4.6e-07 M; in data set [4], 1.3e-06 M. A half-maximal response in data set [5] (3 h, Caspase-Glo 3/7, median) (EC50) required 0.37 µM.
Consider `Cc1nn(C)c2c1-c1c(F)ccc3c(CCCOc4cccc5cc(F)ccc45)c(C(=O)O)n(c13)CCCCOC2` (racemic) [Example 32, (rac)-13-fluoro-1-(3-((6-fluoronaphthalen-1-yl)oxy)propyl)-10,12-dimethyl-4,5,6,7,9,10-hexahydropyrazolo[4′,3′:9,10][1]oxa[6]azacycloundecino[8,7,6-hi]indole-2-carboxylic acid], for which the IC50 in data set [1] worked out at 0.0011 µM; in data set [2] (Homo sapiens, A2780, 72 h), 15.2 µM; in data set [3] (Homo sapiens, SU-DHL-5, 5 h), 1.1e-06 M; in data set [4] (Homo sapiens, SU-DHL10, 5 h), 2e-06 M. Moreover, the EC50 in data set [5] (setting [6]) was found to be 0.8 µM.
With `CCc1c2c(nn1C)COC/C=C\Cn1c(C(=O)O)c(CCCOc3cccc4ccccc34)c3ccc(F)c-2c31` (racemic) [Example 5, (rac)-(11Z)-3-ethyl-4-fluoro-2-methyl-7-[3-(naphthalen-1-yloxy)propyl]-2,10,13,15-tetrahydro-pyrazolo[4′,3′:9,10][1,6]oxazacycloundecino[8,7,6-hi]indole-8-carboxylic acid], the IC50 in data set [1] is 0.0023 µM; in data set [2] (72 h, listed as 05), 28.1 µM and 20.8 µM and 27.7 µM; in data set [2] (Homo sapiens, A2780, 72 h), 25.4 µM; in data set [3] (Homo sapiens, SU-DHL-5, 5 h), 1.5e-06 M; in data set [4] (Homo sapiens, SU-DHL10, 5 h) it was 3.2e-06 M. Besides, the response in data set [5] (setting [6]) was half-maximal at 1 µM (EC50).
In the case of `Cc1c2c(nn1C)COCCCCn1c(C(=O)O)c(CCCOc3cccc4c3CCC4)c3ccc(F)c-2c31` (racemic) [Example 19, (rac)-1-(3-((2,3-dihydro-1H-inden-4-yl)oxy)propyl)-13-fluoro-11,12-dimethyl-4,5,6,7,9,11-hexahydropyrazolo[4′,3′:9,10][1]oxa[6]azacycloundecino[8,7,6-hi]indole-2-carboxylic acid], the IC50 in data set [1] stood at 0.0015 µM; in data set [2] (Homo sapiens, A2780, 72 h), 16.5 µM; in data set [3] (Homo sapiens, SU-DHL-5, 5 h) it was 1.4e-06 M; in data set [4] (Homo sapiens, SU-DHL10, 5 h) it was 2.1e-06 M. The molecule also gave an EC50 in data set [5] (setting [6]) of 0.96 µM.
With `Cc1nn(C)c2c1-c1c(F)ccc3c(CCCOc4cccc5c4CCC5)c(C(=O)O)n(c13)CCCCOC2` (racemic) [Example 35, (rac)-1-(3-((2,3-dihydro-1H-inden-4-yl)oxy)propyl)-13-fluoro-10,12-dimethyl-4,5,6,7,9,10-hexahydropyrazolo[4′,3′:9,10][1]oxa[6]azacycloundecino[8,7,6-hi]indole-2-carboxylic acid], the IC50 came out at 0.0013 µM in data set [1]; 15 µM in data set [2] (Homo sapiens, A2780, 72 h); 7.1e-06 M in data set [3] (Homo sapiens, SU-DHL-5, 5 h); 1.5e-05 M in data set [4] (Homo sapiens, SU-DHL10, 5 h). Also, in data set [5] (setting [6]), the EC50 is 6.2 µM.
For the molecule `Cc1nn(C)c2c1-c1c(F)ccc3c(CCCOc4cccc5ccccc45)c(C(=O)O)n(c13)C/C=C\COC2` (racemic) [Example 9, (rac)-(Z)-13-fluoro-10,12-dimethyl-1-(3-(naphthalen-1-yloxy)propyl)-4,7,9,10-tetrahydro-pyrazolo[4′,3′:9,10][1]oxa[6]azacycloundecino[8,7,6-hi]indole-2-carboxylic acid], the IC50 in data set [1] amounted to 0.0024 µM; in data set [2] (72 h, listed as 09) it was 20.7 µM; in data set [2] (Homo sapiens, A2780, 72 h), 23.1 µM; in data set [3] (Homo sapiens, SU-DHL-5, 5 h), 2.9e-06 M; in data set [4] (Homo sapiens, SU-DHL10, 5 h) it was 1.5e-05 M. Besides, the response in data set [5] (setting [6]) was half-maximal at 2.7 µM (EC50).
Regarding `Cc1c2c(nn1C)COCCCCn1c(C(=O)O)c(CCCOc3cccc4ccccc34)c3ccc(F)c-2c31` (single isomer, unassigned; enantiomer 1) [Example 3, 4-fluoro-2,3-dimethyl-7-[3-(naphthalen-1-yloxy)propyl]-2,10,11,12,13,15-hexahydropyrazolo-[4′,3′:9,10][1,6]oxazacycloundecino[8,7,6-hi]indole-8-carboxylic acid-N-ethylethanamine salt (enantiomer 1)], the IC50 is 0.0013 µM in data set [1]; 23.8 µM and 17.6 µM and 15.3 µM in data set [2] (72 h, listed as 03); 7.7e-07 M in data set [3]; 1.1e-06 M in data set [4] (Homo sapiens, SU-DHL10, 5 h). Besides, the EC50 in data set [5] (3 h, Caspase-Glo 3/7, median) is 0.65 µM.
With `Cc1c2c(nn1C)COCCCCn1c(C(=O)O)c(CCCOc3cccc4ccccc34)c3ccc(F)c-2c31` (racemic) [Example 2, (rac)-4-fluoro-2,3-dimethyl-7-[3-(naphthalen-1-yloxy)propyl]-2,10,11,12,13,15-hexahydro-pyrazolo[4′,3′:9,10][1,6]oxazacycloundecino[8,7,6-hi]indole-8-carboxylic acid], the IC50 in data set [1] was 0.0012 µM; in data set [2] (72 h, listed as 02) it was 12.2 µM and 14.5 µM; in data set [2] (Homo sapiens, A2780, 72 h) it was 13 µM; in data set [3] (Homo sapiens, SU-DHL-5, 5 h), 1e-06 M; in data set [4] (Homo sapiens, SU-DHL10, 5 h), 1.6e-06 M. This molecule also had an EC50 in data set [5] (setting [6]) of 0.6 µM.
As for `Cc1c2c(nn1C)COCCCCn1c(C(=O)O)c(CCCOc3cccc4cc(F)ccc34)c3ccc(F)c-2c31` (single isomer, unassigned; enantiomer 1) [Example 13, 4-fluoro-7-{3-[(6-fluoronaphthalen-1-yl)oxy]propyl}-2,3-dimethyl-2,10,11,12,13,15-hexahydro-pyrazolo[4′,3′:9,10][1,6]oxazacycloundecino[8,7,6-hi]indole-8-carboxylic acid-N-ethylethanamine salt (enantiomer 1)], the IC50 in data set [1] stood at 0.00098 µM; in data set [2] (72 h) it was 4.11 µM; in data set [3], 3.9e-07 M; in data set [4], 8e-07 M. For the same molecule, in data set [5] (3 h, Caspase-Glo 3/7, median), the EC50 was found to be 0.34 µM.
Regarding `CCc1nn(C)c2c1-c1c(F)ccc3c(CCCOc4cccc5ccccc45)c(C(=O)O)n(c13)C/C=C\COC2` (racemic) [Example 11, (rac)-(Z)-12-ethyl-13-fluoro-10-methyl-1-(3-(naphthalen-1-yloxy)propyl)-4,7,9,10-tetrahydro-pyrazolo[4′,3′:9,10][1]oxa[6]azacycloundecino[8,7,6-hi]indole-2-carboxylic acid], the IC50 in data set [1] amounted to 0.0022 µM; in data set [2] (72 h) it was 23.5 µM; in data set [2] (Homo sapiens, A2780, 72 h) it was 15.3 µM; in data set [3] (Homo sapiens, SU-DHL-5, 5 h), 2.3e-06 M; in data set [4] (Homo sapiens, SU-DHL10, 5 h) it was 7.2e-06 M. Moreover, it took 2.1 µM to reach a half-maximal effect in data set [5] (setting [6]) (EC50).
Regarding `Cc1c2c(nn1C)CNCCCCn1c(C(=O)O)c(CCCOc3cccc4ccccc34)c3ccc(F)c-2c31` (single isomer, unassigned; enantiomer 1) [Example 48, 4-fluoro-2,3-dimethyl-7-{3-[(naphthalen-1-yl)oxy]propyl}-10,11,12,13,14,15-hexahydro-2H-pyrazolo[3′,4′:8,9][1,6]diazacycloundecino[10,11,1-hi]indole-8-carboxylic acid (enantiomer 1)], the IC50 was 0.0011 µM in data set [1], 7.17 µM in data set [2] (72 h), 1.3e-06 M in data set [3] and 1.9e-06 M in data set [4]. This molecule came in with an EC50 in data set [5] (3 h, Caspase-Glo 3/7, median) of 1.2 µM.
As for `Cc1cc(OCCCc2c(C(=O)O)n3c4c(c(F)ccc24)-c2c(C)nn(C)c2COCCCC3)cc(C)c1Cl` (racemic) [Example 36, (rac)-1-(3-(4-chloro-3,5-dimethylphenoxy)propyl)-13-fluoro-10,12-dimethyl-4,5,6,7,9,10-hexahydropyrazolo[4′,3′:9,10][1]oxa[6]azacycloundecino[8,7,6-hi]indole-2-carboxylic acid], the IC50 was determined as 0.0021 µM in data set [1]; 29.5 µM in data set [2] (Homo sapiens, A2780, 72 h); 4.3e-06 M in data set [3] (Homo sapiens, SU-DHL-5, 5 h); 9e-06 M in data set [4] (Homo sapiens, SU-DHL10, 5 h). In addition, the EC50 in data set [5] (setting [6]) was found to be 3.5 µM.

The term IC50 denotes the concentration that gives 50% inhibition. For orientation: EC50 means the midpoint of the concentration-response curve. A higher EC50 goes with a less potent agent.
